Measurements taken from patent publication US20070021434A1, “NON-NUCLEOSIDE ANTI-HEPACIVIRUS AGENTS AND USES THEREOF” (Migenix Inc., priority 2005, published 2007).
pIC50: −log10 of the molar value.

Biological target: HCV RdRp (NS5B) (UniProt P26663)
Type: biochemical, hepatitis C virus

Chain of HCV RdRp (NS5B) (P26663 whole entry, looked up): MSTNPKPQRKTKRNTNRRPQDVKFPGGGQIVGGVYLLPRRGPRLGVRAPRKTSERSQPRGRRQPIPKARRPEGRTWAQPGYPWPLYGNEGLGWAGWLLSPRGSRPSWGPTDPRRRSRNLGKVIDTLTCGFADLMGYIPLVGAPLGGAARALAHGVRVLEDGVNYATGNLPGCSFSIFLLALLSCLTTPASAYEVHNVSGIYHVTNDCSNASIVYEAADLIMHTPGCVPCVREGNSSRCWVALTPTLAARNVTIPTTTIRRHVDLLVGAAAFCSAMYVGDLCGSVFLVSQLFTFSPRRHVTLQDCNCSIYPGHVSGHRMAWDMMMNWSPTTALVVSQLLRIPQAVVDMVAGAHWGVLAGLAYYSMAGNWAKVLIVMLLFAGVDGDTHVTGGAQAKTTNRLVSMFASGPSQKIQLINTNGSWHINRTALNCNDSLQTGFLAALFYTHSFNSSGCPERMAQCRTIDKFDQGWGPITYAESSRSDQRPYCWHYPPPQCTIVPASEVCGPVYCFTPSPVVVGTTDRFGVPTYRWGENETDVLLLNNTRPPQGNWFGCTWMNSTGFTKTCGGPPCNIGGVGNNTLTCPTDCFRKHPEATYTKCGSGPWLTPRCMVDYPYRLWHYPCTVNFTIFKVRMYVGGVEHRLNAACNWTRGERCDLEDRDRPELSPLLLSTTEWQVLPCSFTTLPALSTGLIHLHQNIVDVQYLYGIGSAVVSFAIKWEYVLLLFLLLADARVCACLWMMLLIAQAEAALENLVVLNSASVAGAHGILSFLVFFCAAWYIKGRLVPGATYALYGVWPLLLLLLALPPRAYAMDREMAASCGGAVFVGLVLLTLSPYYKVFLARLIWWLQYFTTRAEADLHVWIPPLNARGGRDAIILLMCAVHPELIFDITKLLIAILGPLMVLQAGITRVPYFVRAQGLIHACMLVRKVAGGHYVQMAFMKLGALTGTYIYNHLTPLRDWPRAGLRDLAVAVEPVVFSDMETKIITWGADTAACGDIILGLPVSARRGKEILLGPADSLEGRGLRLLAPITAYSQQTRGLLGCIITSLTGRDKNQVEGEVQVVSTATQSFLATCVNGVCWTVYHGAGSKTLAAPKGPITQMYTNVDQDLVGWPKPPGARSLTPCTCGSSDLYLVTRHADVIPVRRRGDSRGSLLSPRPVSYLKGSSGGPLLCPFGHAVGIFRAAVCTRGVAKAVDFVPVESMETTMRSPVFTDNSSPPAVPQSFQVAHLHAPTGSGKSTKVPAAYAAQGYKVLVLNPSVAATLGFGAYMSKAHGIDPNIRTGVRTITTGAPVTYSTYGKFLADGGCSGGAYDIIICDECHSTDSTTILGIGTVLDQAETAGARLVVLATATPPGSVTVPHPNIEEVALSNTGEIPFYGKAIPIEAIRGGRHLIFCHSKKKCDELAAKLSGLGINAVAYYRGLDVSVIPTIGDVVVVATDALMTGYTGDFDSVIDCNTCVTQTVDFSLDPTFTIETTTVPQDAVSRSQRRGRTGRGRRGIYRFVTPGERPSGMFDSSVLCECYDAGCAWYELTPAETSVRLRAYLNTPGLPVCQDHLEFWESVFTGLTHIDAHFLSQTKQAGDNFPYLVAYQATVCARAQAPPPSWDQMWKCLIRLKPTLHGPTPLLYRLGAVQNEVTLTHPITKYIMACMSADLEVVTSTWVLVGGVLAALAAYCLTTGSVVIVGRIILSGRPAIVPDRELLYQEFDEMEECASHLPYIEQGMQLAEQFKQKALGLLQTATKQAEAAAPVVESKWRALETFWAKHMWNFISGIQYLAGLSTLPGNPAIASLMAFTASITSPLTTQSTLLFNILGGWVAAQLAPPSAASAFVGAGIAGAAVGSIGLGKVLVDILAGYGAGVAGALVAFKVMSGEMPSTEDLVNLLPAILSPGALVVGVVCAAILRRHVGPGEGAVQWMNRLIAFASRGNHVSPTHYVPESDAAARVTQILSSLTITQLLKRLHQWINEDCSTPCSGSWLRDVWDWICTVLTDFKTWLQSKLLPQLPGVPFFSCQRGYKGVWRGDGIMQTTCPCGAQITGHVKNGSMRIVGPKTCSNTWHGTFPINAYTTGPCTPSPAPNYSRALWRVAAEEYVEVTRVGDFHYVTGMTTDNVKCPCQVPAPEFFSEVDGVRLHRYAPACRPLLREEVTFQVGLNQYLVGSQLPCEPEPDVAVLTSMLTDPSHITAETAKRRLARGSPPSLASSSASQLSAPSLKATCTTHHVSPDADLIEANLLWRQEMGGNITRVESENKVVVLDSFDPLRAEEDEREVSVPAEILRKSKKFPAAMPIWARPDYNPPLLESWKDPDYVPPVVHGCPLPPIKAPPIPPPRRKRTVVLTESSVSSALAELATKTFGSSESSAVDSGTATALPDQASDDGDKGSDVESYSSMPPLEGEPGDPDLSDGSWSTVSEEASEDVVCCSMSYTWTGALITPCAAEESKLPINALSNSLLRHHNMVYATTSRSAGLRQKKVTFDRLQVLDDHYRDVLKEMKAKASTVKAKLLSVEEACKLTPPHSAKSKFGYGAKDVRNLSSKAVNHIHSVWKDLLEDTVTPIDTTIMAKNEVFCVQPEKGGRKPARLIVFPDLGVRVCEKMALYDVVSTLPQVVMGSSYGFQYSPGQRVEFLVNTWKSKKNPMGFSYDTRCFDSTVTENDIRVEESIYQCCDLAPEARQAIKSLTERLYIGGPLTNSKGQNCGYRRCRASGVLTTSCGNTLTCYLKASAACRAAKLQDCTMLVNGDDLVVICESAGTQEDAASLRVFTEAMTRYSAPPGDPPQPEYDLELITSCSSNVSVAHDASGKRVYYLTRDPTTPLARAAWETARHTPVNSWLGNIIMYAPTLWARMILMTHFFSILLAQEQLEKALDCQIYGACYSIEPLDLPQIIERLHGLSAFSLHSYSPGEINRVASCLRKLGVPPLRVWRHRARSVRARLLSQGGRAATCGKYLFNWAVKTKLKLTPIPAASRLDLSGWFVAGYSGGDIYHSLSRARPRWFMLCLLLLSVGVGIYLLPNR

SMILES | pIC50
Cc1ccc(NC(=O)C(CCCNC(=O)CN)NC(=O)OCC2c3ccccc3-c3ccccc32)cc1 [Compound 177, (S)-[4-(2-AMINO-ACETYLAMINO)-1-P-TOLYLCARBAMOYL-BUTYL]-CARBAMIC ACID 9H-FLUOREN-9-YLMETHYL ESTER] | > 5.00
C[C@@H](N)C(=O)Nc1ccc(CN(C(=O)c2ccco2)C2CCCCC2)cc1 [Compound 13, (R)-FURAN-2-CARBOXYLIC ACID [4-(2-AMINO-PROPIONYLAMINO)-BENZYL]-CYCLOHEXYL-AMIDE] | < 4.30
NCCCC[C@H](NC(=O)OCC1c2ccccc2-c2ccccc21)C(=O)Nc1ccc2c(c1)CCC2 [Compound 81, (S)-[5-AMINO-1-(INDAN-5-YLCARBAMOYL)-PENTYL]-CARBAMIC ACID 9H-FLUOREN-9-YLMETHYL ESTER] | 4.30 to 5.00
Cc1ccc(NC(=O)C(CC(=O)O)NC(=O)OCC2c3ccccc3-c3ccccc32)cc1 [Compound 371, (R)-3-(9H-FLUOREN-9-YLMETHOXYCARBONYLAMINO)-NR-P-TOLYL-[…]] | < 4.30
NCCCC[C@H](NC(=O)OCC1c2ccccc2-c2ccccc21)C(=O)N(Cc1ccccc1)C1CCCCC1 [Compound 33, (S)-[5-AMINO-1-(BENZYL-CYCLOHEXYL-CARBAMOYL)-PENTYL]-CARBAMIC ACID 9H-FLUOREN-9-YLMETHYL ESTER] | 4.30 to 5.00
Cc1ccc(NC(=O)[C@H](CCCCN)NC(=O)OCC2c3ccccc3-c3ccccc32)cn1 [Compound 229, (S)-[5-AMINO-1-(6-METHYL-PYRIDIN-3-YLCARBAMOYL)-PENTYL]-CARBAMIC ACID 9H-FLUOREN-9-YLMETHYL ESTER] | < 4.30
Cc1ccc(NC(=O)C(Cc2cccnc2)NC(=O)OCC2c3ccccc3-c3ccccc32)cc1 [Compound 385, (S)-(2-PYRIDIN-3-YL-1-P-TOLYLCARBAMOYL-ETHYL)-CARBAMIC ACID 9H-FLUOREN-9-YLMETHYL ESTER] | < 4.30
NCCCC[C@H](NC(=O)OCC1c2ccccc2-c2ccccc21)C(=O)Nc1ccc(F)cc1 [Compound 44, (S)-[5-AMINO-1-(4-FLUORO-PHENYLCARBAMOYL)-PENTYL]-CARBAMIC ACID 9H-FLUOREN-9-YLMETHYL ESTER] | < 4.30
Cc1ccc(NC(=O)C2CCCCN2C(=O)OCC2c3ccccc3-c3ccccc32)cc1 [Compound 122, (S)-2-P-TOLYLCARBAMOYL-PIPERIDINE-1-CARBOXYLIC ACID 9H-FLUOREN-9-YLMETHYL ESTER] | < 4.30
NCCCC[C@H](NC(=O)Nc1ccc(OCc2ccccc2)cc1)C(=O)N1CCOCC1 [Compound 318, (S)-l -[5-AMINO-1-(MORPHOLINE-4-CARBONYL)-PENTYL]-3-(4-BENZYLOXY-PHENYL)-UREA] | 4.30 to 5.00
Cc1ccc(NC(=O)[C@H](CCCCN)NC(=O)Nc2ccc(F)cc2)cc1 [Compound 43, (S)-6-AMINO-2-[3-(4-FLUORO-PHENYL)-UREIDO]-HEXANOIC ACID P-TOLYLAMIDE] | < 4.30
NCCCC[C@@H](NC(=O)NC1c2ccccc2-c2ccccc21)C(=O)Nc1ccc(C2CCCCC2)cc1 [Compound 195, (R)-6-AMINO-2-[3-(9H-FLUOREN-9-YL)-UREIDO]-HEXANOIC ACID (4-CYCLOHEXYL-PHENYL)-AMIDE] | > 5.00
Cc1ccc(NC(=O)[C@H](CCCCN)NC(=O)OCC2c3ccccc3-c3ccccc32)cc1C [Compound 216, (S)-[5-AMINO-1-(3,4-DIMETHYL-PHENYLCARBAMOYL)-PENTYL]-CARBAMIC ACID 9H-FLUOREN-9-YLMETHYL ESTER] | 4.30 to 5.00
O=C(CC1CNCCN1C(=O)NCc1ccc(Cl)c(Cl)c1)Nc1ccc(C2CCCCC2)cc1 (stereo not shown) [Compound 160, 2-[(4-CYCLOHEXYL-PHENYLCARBAMOYL)-METHYL]-PIPERAZINE-1-CARBOXYLIC ACID 3,4-DICHLORO-BENZYLAMIDE] | 4.30 to 5.00
CC(C)(C)c1ccc(NC(=O)[C@H](Cc2ccc(CN)cc2)NC(=O)NCc2ccc(Cl)c(Cl)c2)cc1 [Compound 149, (S)-3-(4-AMINOMETHYL-PHENYL)-N-(4-TERT-BUTYL-PHENYL)-2-[3-(3,4-DICHLORO-BENZYL)-UREIDO]-PROPIONAMIDE] | > 5.00
Cc1ccc(NC(=O)[C@@H](CCCCN)NC(=O)OCC2c3ccccc3-c3ccccc32)cc1 [Compound 20, (S)-(5-AMINO-1-P-TOLYLCARBAMOYL-PENTYL)-CARBAMIC ACID 9H-FLUOREN-9-YLMETHYL ESTER] | 4.30 to 5.00
Cc1ccc(NC(=O)C(CCCN)NC(=O)Nc2ccc(-c3ccccc3)cc2)cc1 [Compound 188, (S)-5-AMINO-2-(3-BIPHENYL-4-YL-UREIDO)-PENTANOIC ACID P-TOLYLAMIDE] | < 4.30
Cc1ccc(NC(=O)C(CCCCN)NC(=O)c2ccc3ccccc3c2)cc1 [Compound 51, (S)-NAPHTHALENE-2-CARBOXYLIC ACID (5-AMINO-1-P-TOLYLCARBAMOYL-PENTYL)-AMIDE] | < 4.30
COC(=O)c1ccc(C(=O)NC(C)(C)C(=O)Nc2ccc(CN(C(=O)c3ccco3)C3CCCCC3)cc2)cc1 [Compound 3, N-[1-(4-{[CYCLOHEXYL-(FURAN-2-CARBONYL)-AMINO]-METHYL}-PHENYLCARBAMOYL)-1-METHYL-ETHYL]-TERE[…] METHYL ESTER] | < 4.30
Cc1ccc(NC(=O)CC2CNCCN2C(=O)OCC2c3ccccc3-c3ccccc32)cc1 (stereo not shown) [Compound 197, 2-(P-TOLYLCARBAMOYL-METHYL)-PIPERAZINE-1-CARBOXYLIC ACID 9H-FLUOREN-9-YLMETHYL ESTER] | < 4.30
NCCCC[C@H](NC(=O)OCC1c2ccccc2-c2ccccc21)C(=O)Nc1cccc2[nH]ccc12 [Compound 208, (S)-[5-AMINO-1-(1H-INDOL-4-YLCARBAMOYL)-PENTYL]-CARBAMIC ACID 9H-FLUOREN-9-YLMETHYL ESTER] | > 5.00
Cc1ccc(NC(=O)C[C@H](CCCCN)NC(=O)Nc2ccc3c(c2)Cc2ccccc2-3)cc1 [Compound 247, (S)-7-AMINO-3-[3-(9H-FLUOREN-2-YL)-UREIDO]-HEPTANOIC ACID P-TOLYLAMIDE] | 4.30 to 5.00
Cc1ccc(NC(=O)NC(CCCCN)C(=O)Nc2ccc(C)cc2)cc1 [Compound 135, (S)-6-AMINO-2-(3-P-TOLYL-UREIDO)-HEXANOIC ACID P-TOLYLAMIDE] | < 4.30
NCCCC[C@H](NC(=O)Nc1ccc(OCc2ccccc2)cc1)C(=O)Nc1ccc2c(c1)CCC2 [Compound 283, (S)-6-AMINO-2-[3-(4-BENZYLOXY-PHENYL)-UREIDO]-HEXANOIC ACID INDAN-5-YLAMIDE] | 4.30 to 5.00
CCOC(=O)C=Cc1ccc(NC(=O)[C@H](CCCCN)NC(=O)OCC2c3ccccc3-c3ccccc32)cc1 [Compound 59, (S)-3-{4-[6-AMINO-2-((9H-FLUOREN-9-YLMETHOXYCARBONYL)AMINO)-HEXANOYLAMINO]PHENYL}-ACRYLIC ACID ETHYL ESTER] | 4.30 to 5.00
Cc1ccc(NC(=O)[C@H](CCCCN)NS(=O)(=O)c2ccc(Cl)cc2Cl)cc1 [Compound 393, (S)-6-AMINO-2-(2,4-DICHLORO-BENZENESULFONYLAMINO)-HEXANOIC ACID P-TOLYLAMIDE] | < 4.30
Cc1ccc(NC(=O)C(CCCCN)NC(=O)Nc2ccc(CN(C)c3ccc(C)cc3)cc2)cc1 [Compound 292, (S)-6-AMINO-2-(3-{4-[(METHYL-P-TOLYL-AMINO)-METHYL]-PHENYL}-UREIDO)-HEXANOIC ACID P-TOLYLAMIDE] | < 4.30
Cc1ccc(NC(=O)[C@H](CCCCN)NS(=O)(=O)c2ccc3ccccc3c2)cc1 [Compound 69, (S)-6-AMINO-2-(NAPHTHALENE-2-SULFONYLAMINO)-HEXANOIC ACID P-TOLYLAMIDE] | < 4.30
